Test results: patent US9302999B2, “Substituted triazoles as herbicides” (E. I. DU PONT DE NEMOURS AND COMPANY, priority 2012, dated 2016)

Assays:
Type in all cases: in vivo
[1] = test system: lambsquarters (Chenopodium album); assay: Test F pre-/postemergence: lambsquarters; conditions: Preemergence
Summary of the method: (§1)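 Preemergence treatment of seeds sown in silt loam soil, and postemergence treatment of plants 2–18 cm tall (1- to 4-leaf stage), with compounds in non-phytotoxic solvent plus surfactant. Greenhouse 14–21 days, then visual rating versus controls on 0–100 scale (100 = complete control).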

corn (Zea mays) = assay: Test F pre-/postemergence: corn
Summary of the method: as §1

Oilseed Rape = assay: Test C preemergence: oilseed rape; conditions: 31 g ai/ha, scale 0 (no effect) to 100 (complete control)
[2] = test system: goosegrass (Eleusine indica); assay: Test F pre-/postemergence: goosegrass; conditions: Preemergence
Summary of the method: as §1

[3] = test system: dayflower, VA (Virginia (VA) dayflower, Commelina virginica); assay: Test F pre-/postemergence: dayflower, VA
Summary of the method: as §1

[4] = test system: ragweed (common ragweed, Ambrosia elatior); assay: Test F pre-/postemergence: ragweed; conditions: Preemergence
Summary of the method: as §1

[5] = 16 g ai/ha, scale 0 to 100, 0 no effect, 100 complete control
[6] = 31 g ai/ha, scale 0 to 100, 0 no effect, 100 complete control
[7] = Postemergence, 250 g ai/ha, scale 0 to 100
[8] = Postemergence, 16 g ai/ha, scale 0 to 100
[9] = Postemergence, 31 g ai/ha, scale 0 to 100
[10] = Postemergence, 62 g ai/ha, scale 0 to 100
[11] = Postemergence, 125 g ai/ha, scale 0 to 100
[12] = Preemergence, 16 g ai/ha, scale 0 to 100, 0 no effect, 100 complete control
[13] = Preemergence, 31 g ai/ha, scale 0 to 100, 0 no effect, 100 complete control
[14] = Preemergence, 62 g ai/ha, scale 0 to 100
[15] = Preemergence, 125 g ai/ha, scale 0 to 100
[16] = Preemergence, 250 g ai/ha, scale 0 to 100

CCc1nn(-c2ccc(C(F)(F)F)cc2)nc1Oc1ccnc(C(F)(F)F)c1 [Compound 169]
Plant response rating, Lambsquarters [1, 5]: 0 | Plant response rating, Lambsquarters [1, 6]: 30 | Plant response rating, Lambsquarters ([1]; 62 g ai/ha, scale 0 to 100): 98 | Plant response rating, Lambsquarters ([1]; 125 g ai/ha, scale 0 to 100): 98 | Plant response rating, Lambsquarters ([1]; 250 g ai/ha, scale 0 to 100): 100 | Plant response rating, Corn (corn (Zea mays); [7]): 10 | Plant response rating, Corn (corn (Zea mays); [8]): 5 | Plant response rating, Corn (corn (Zea mays); [9]): 5 | Plant response rating, Corn (corn (Zea mays); [10]): 10 | Plant response rating, Corn (corn (Zea mays); [11]): 10 | Plant response rating, Corn (corn (Zea mays); [12]): 0 | Plant response rating, Corn (corn (Zea mays); [13]): 0 | Plant response rating, Corn (corn (Zea mays); [14]): 0 | Plant response rating, Corn (corn (Zea mays); [15]): 0 | Plant response rating, Corn (corn (Zea mays); [16]): 0 | Plant response rating, Oilseed Rape (Oilseed Rape): 50 | Plant response rating, Goosegrass [2, 5]: 50 | Plant response rating, Goosegrass [2, 6]: 95 | Plant response rating, Goosegrass ([2]; 62 g ai/ha, scale 0 to 100): 100 | Plant response rating, Goosegrass ([2]; 125 g ai/ha, scale 0 to 100): 100 | Plant response rating, Goosegrass ([2]; 250 g ai/ha, scale 0 to 100): 100 | Plant response rating, Dayflower, VA [3, 7]: 20 | Plant response rating, Dayflower, VA [3, 8]: 10 | Plant response rating, Dayflower, VA [3, 9]: 10 | Plant response rating, Dayflower, VA [3, 10]: 10 | Plant response rating, Dayflower, VA [3, 11]: 10 | Plant response rating, Dayflower, VA [3, 12]: 0 | Plant response rating, Dayflower, VA [3, 13]: 5 | Plant response rating, Dayflower, VA [3, 14]: 10 | Plant response rating, Dayflower, VA [3, 15]: 65 | Plant response rating, Dayflower, VA [3, 16]: 75 | Plant response rating, Ragweed [4, 5]: 0 | Plant response rating, Ragweed [4, 6]: 0 | Plant response rating, Ragweed ([4]; 125 g ai/ha, scale 0 to 100): 60 | Plant response rating, Ragweed ([4]; 250 g ai/ha, scale 0 to 100): 100
